Key:
necrosis = assay: Necrosis inhibitory activity (cell necrosis / cell viability assay); assay type: cell-based; details: Necrosis Inhibitory Activity, given as range; read-out: EC50
Text: Necrosis Inhibitory Activity
Representative IC50 of hRIP1 Kinase Assay Correlated with Our IC50 of Cell Necrosis Assay: […]

ferroptosis = assay: Ferroptosis inhibitor activity; assay type: cell-based; details: 1 uM threshold activity extrapolated
Text: Ferroptosis Inhibitor Activity 1 Um Threshold Activity Extrapolated

| Compound | EC50 (ferroptosis) | EC50 (necrosis) |
| --- | --- | --- |
| CCC(C)(C)C(=O)N(O)Cc1sccc1C [Compound 22, N-hydroxy-2,2-dimethyl-N-((3-methylthiophen-2-yl)methyl)butanamide] | 1 to 10 µM | 1000 to 10000 nM |
| CCC(C)(C)C(=O)N(O)Cc1cccc(Br)c1 [Compound 5, N-(3-bromobenzyl)-N-hydroxy-2,2-dimethylbutanamide] | 1 to 10 µM | 1 to 1000 nM |
| CCC(C)(C)C(=O)N(O)Cc1cc(C)c(C)s1 [Compound 21, N-((4,5-dimethylthiophen-2-yl)methyl)-N-hydroxy-2,2-dimethylbutanamide] | 1 to 10 µM | 1 to 1000 nM |
| CCC(C)(C)C(=O)N(O)Cc1cccc(F)c1F [Compound 9, N-(2,3-difluorobenzyl)-N-hydroxy-2,2-dimethylbutanamide] | 1 to 10 µM | 1 to 1000 nM |
| CC(C)(C(=O)N(O)Cc1cc(F)cc(F)c1)C(F)(F)F [Compound 45, N-(3,5-difluorobenzyl)-3,3,3-trifluoro-N-hydroxy-2,2-dimethylpropanamide] | 1 to 10 µM | 1 to 1000 nM |
| CC(C)(C(=O)N(O)Cc1cc(F)c(F)c(F)c1)C(F)(F)F [Compound 46, 3,3,3-trifluoro-N-hydroxy-2,2-dimethyl-N-(3,4,5-trifluorobenzyl)propenamide] | 1 to 10 µM | 1000 to 10000 nM |
| CCC(C)(C)C(=O)N(O)Cc1c(F)cc(F)cc1F [Compound 10, N-hydroxy-2,2-dimethyl-N-(2,4,6-trifluorobenzyl)butanamide] | 1 to 10 µM | 1000 to 10000 nM |
| Cc1cc(CN(O)C(=O)C(C)(C)C(F)(F)F)sc1C [Compound 47, N-((4,5-dimethylthiophen-2-yl)methyl)-3,3,3-trifluoro-N-hydroxy-2,2-dimethylpropanamide] | 1 to 10 µM | 1 to 1000 nM |
| CCC(C)(C)C(=O)N(O)Cc1ccccn1 [Compound 8, N-hydroxy-2,2-dimethyl-N-(pyridin-2-ylmethyl)butanamide] | 1 to 10 µM | 1000 to 10000 nM |
| CC(C)(C)C(=O)N(O)Cc1ccccc1 [Compound 7, N-benzyl-N-hydroxypivalamide] | 1 to 10 µM | 1 to 1000 nM |
| O=C(C1CCCCC1)N(O)Cc1ccccc1 [Compound 37, N-benzyl-N-hydroxycyclohexanecarboxamide] | 1 to 10 µM | 1000 to 10000 nM |
| CC(C)(C(=O)N(O)Cc1ccc(Cl)cc1)C(F)(F)F [Compound 44, N-(4-chlorobenzyl)-3,3,3-trifluoro-N-hydroxy-2,2-dimethylpropanamide] | 1 to 10 µM | 1 to 1000 nM |
| O=C(C1CCCC1)N(O)Cc1ccccc1 [Compound 33, N-benzyl-N-hydroxycydopentanecarboxamide] | 1 to 10 µM | 1000 to 10000 nM |

More lines, main results first:

| EC50 (ferroptosis) | Compound | EC50 (necrosis) |
| --- | --- | --- |
| 1 to 10 µM | [2H]c1c([2H])c([2H])c(C([2H])([2H])N(O)C(=O)C(C)(C)CC)c([2H])c1[2H] [Compound 30, N-hydroxy-2,2-dimethyl-N-((phenyl-d5)methyl-d2)butanamide] | 1 to 1000 nM |
| 1 to 10 µM | CC(C)(C(=O)N(O)Cc1cccs1)C(F)(F)F [Compound 49, 3,3,3-trifluoro-N-hydroxy-2,2-dimethyl-N-(thiophen-2-ylmethyl)propanamide] | 1 to 1000 nM |
| 1 to 10 µM | CC(C)(C(=O)N(O)Cc1ccc(Br)cc1)C(F)(F)F [Compound 42, N-(4-bromobenzyl)-3,3,3-trifluoro-N-hydroxy-2,2-dimethylpropanamide] | 1 to 1000 nM |
| 1 to 10 µM | O=C(N(O)Cc1ccccc1)C1(C(F)(F)F)CCCC1 [Compound 34, N-benzyl-N-hydroxy-1-(trifluoromethyl)cyclopentane-1-carboxamide] | 1 to 1000 nM |
| 1 to 10 µM | CCC(C)(C)C(=O)N(O)CC1=CCCCC1 [Compound 25, N-(cyclohex-1-en-1-ylmethyl)-N-hydroxy-2,2-dimethylbutanamide] | 1 to 1000 nM |

— patent US12129221B2, “Difluoro phenyl amide RIP1 inhibitor” (SIRONAX LTD, priority 2018, dated 2024)
